Measured values: article PMC4820820, “CETSA screening identifies known and novel thymidylate synthase inhibitors and slow intracellular activation of 5-fluorouracil” (Nature Communications, 2016)
Values joined by “and” are separate entries in the source; they are usually repeats but may differ in a detail not shown here. Equal values may be shown once. Read-outs that look alike come from different tables or passages of the source.

Experiments:
[1] = target: T1, human thymidylate synthase (TS) (Homo sapiens, UniProt P04818); experiment: CETSA primary screen / single-concentration retest, AlphaScreen, live K562 cells; format: cell-based; conditions: for % stabilization in screen at 50 µM: K562, 2 h, read-out: % stabilization in screen
T1 construct: screening in live, non-engineered cells expressing thymidylate synthase; endogenous in cells; host or cells: K562 (human myelogenous leukemia) cells
Experimental: Compounds were placed in columns 1–22. […] At the day of the experiment the plates were allowed to thaw for 30 min followed by a brief centrifugation step (1,000 × g for 1 min) prior to removal of the seal. The compounds were then diluted with 20 μl supplemented cell culture medium using a Multidrop Combi reagent dispenser (Thermo Scientific). Finally 5 μl of the diluted compounds were transferred to a 384 well hardshell PCR plate (HSR480, BIORAD) using a Bravo liquid handling platform equipped with a 384-well head (Agilent). […] The final concentration of DMSO in the assay was 0.5% in all samples.
(§1) The screen procedure started with the addition of 5 μl of a suspension of K562 cells at a density of 10 million cells per ml to all wells of a 384 well hardshell PCR plate (HSR480, BIORAD) using an electronic multichannel pipette (Biohit). […] For the time-course experiments the incubation times were altered to include also 10 min, 30 min and 6 h. […] After the incubation step the plates were transiently heated at 50 °C for 3 min followed by a controlled cooling to 20 °C for 1 min using a real-time PCR machine (LightCycler480 system, Roche). Plate handling was then as described above for the thermal aggregation experiments. The data were analyzed using microsoft excel and GraphPad Prism 6.
(§2) A calculation of the average and standard error of means for each set of controls also allowed an illustration of how these responses varied over the 32 screening plates. The Z′ factor[38] is commonly used as a measure of how well the assay separates between the controls and this was calculated as described based on the calculated averages and standard deviations of the controls on a per plate basis. For the Tagg shift and the […] experiments the data were analyzed in GraphPad Prism using the Boltzmann sigmoid equation and the saturation binding curve (rectangular hyperbola; binding isotherm) function, respectively. As already discussed[14] these methods make use of equilibrium models for data analysis although the methodology depends on the irreversible aggregation of denatured material. For this reason we refer to the observed responses as apparent and isothermal dose-response fingerprints and are careful with any quantitative interpretations, being well aware of their dependency on experimental conditions. Experiments are on-going to address the quantitative interpretation of CETSA data.

[2] = target: T1, human thymidylate synthase (TS); experiment: ITDRF CETSA at 50 °C, AlphaScreen detection, live K562 cells; format: cell-based; conditions: for EC50: 2 h preincubation
Experimental: For the […] experiments 11-point dose-response curves with three-fold difference in concentration between wells were generated using the Bravo liquid handling system (all serial dilutions were done in 100% DMSO). […] The concentration of DMSO was 0.5% in all samples. […] The assay ready plates were prepared as outlined above for the screen.
as §1, §2

[3] = Intracellular compound and metabolite concentrations by LC-MS/MS in K562 cells; format: in vitro ADME, human; conditions: K562 cells incubated with 100 µM 5-FU, first 6 h
Experimental: Intracellular concentrations of compounds were measured as previously described. Briefly, K562 cells were incubated with the compounds for a predefined time at 37 °C in a 5% CO2 atmosphere. After incubation, the cells were centrifuged (300 × g for 5 min) and a medium sample (supernatant) was collected and diluted 1:10 in a 50 nM warfarin solution (internal standard). The cells were washed with phosphate buffered salt solution and lysed with methanol. Methanol was evaporated and the cell samples were reconstituted in 50 nM warfarin. Samples were analyzed with LC–MS/MS with electrospray ionization in negative mode with transitions monitored as listed in Table 2.

[4] = target: T1, human thymidylate synthase (TS); experiment: CETSA Tagg curves, AlphaScreen detection, live K562 cells; format: cell-based; conditions: 2 h preincubation, 3 min heating, DMSO control 46.7±0.2 °C
Experimental: The data were analyzed using microsoft excel and GraphPad Prism 6.
as §2

TS = TS (Homo sapiens, UniProt P04818); experiment: Thermal shift in vitro assay on recombinant protein; format: binding; parameters: His6 tag with TEV site (vector-encoded by pNIC28-Bsa4); made in house; host or cells: Rosetta BL21-DE3 Escherichia coli; conditions: nucleoside without enzyme treatment
Experimental: The assay was performed on the iCycler iQ Real Time PCR Detection System (Bio-Rad), using the 96-well thin-wall PCR plate (Bio-Rad). The experiment was conducted in a buffer containing 20 mM HEPES at pH 7.5 and 150 mM NaCl. A total volume of 25 μl solution containing 0.2 mg ml^−1 protein, compounds and × 5 Sypro Orange dye (Invitrogen) diluted from 5,000 × stock was dispensed into the 96-well plate. The same amount of DMSO was added in the control wells. The plates were sealed with Microseal B adhesive sealer (Bio-Rad) and heated in iCycler from 25 to 80 °C (56 heating cycles in 28 min). Fluorescent filter used for Sypro Orange measurements was λexcitation=492 nm and λemission=610 nm. The calculation of the midpoint of the curves (Tm) was performed using the software package XLfit from IDBS within microsoft excel.
Decitabine at a concentration of 1 mM was incubated with 1 mg ml^−1 of recombinant DCK and 2.5 mM ATP in a buffer of 50 mM Tris at pH 7.5, 150 mM NaCl and 0.5 mM MgCl2 at room temperature for 60 min to generate the corresponding monophosphates. To probe for nucleotide deamination the samples were further treated with 1 mg ml^−1 of recombinant DCTD in the presence of 1 mM ATP and 10 μM ZnCl2 for 20 min at room temperature. After incubation, the samples were heated at 95 °C for 10 min and centrifuged for 10 min at the highest speed at 4 °C using a benchtop centrifuge. The supernatant was tested without dilution in thermal shift in vitro assays and the TS enzyme inhibition assay. The supernatants from samples without nucleoside were used as the treatment controls.

[5] = 50 μM compound, 2 h preincubation, 50 °C, 0% = DMSO, 100% = 100 nM raltitrexed
[6] = 50 °C, unit taken from curve axis log [cmp] (M), read-out: ITDRF CETSA (hit confirmation)

TS, sequence (P04818 whole entry): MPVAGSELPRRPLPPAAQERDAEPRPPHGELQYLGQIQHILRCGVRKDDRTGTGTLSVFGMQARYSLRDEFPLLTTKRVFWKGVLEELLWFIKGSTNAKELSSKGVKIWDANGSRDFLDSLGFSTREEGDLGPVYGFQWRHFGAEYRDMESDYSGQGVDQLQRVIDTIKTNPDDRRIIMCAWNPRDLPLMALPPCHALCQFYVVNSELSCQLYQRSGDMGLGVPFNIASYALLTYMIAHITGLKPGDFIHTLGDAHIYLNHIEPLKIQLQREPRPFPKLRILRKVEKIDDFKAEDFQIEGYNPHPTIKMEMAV
T1 sequence (P04818 2-313 limits assumed): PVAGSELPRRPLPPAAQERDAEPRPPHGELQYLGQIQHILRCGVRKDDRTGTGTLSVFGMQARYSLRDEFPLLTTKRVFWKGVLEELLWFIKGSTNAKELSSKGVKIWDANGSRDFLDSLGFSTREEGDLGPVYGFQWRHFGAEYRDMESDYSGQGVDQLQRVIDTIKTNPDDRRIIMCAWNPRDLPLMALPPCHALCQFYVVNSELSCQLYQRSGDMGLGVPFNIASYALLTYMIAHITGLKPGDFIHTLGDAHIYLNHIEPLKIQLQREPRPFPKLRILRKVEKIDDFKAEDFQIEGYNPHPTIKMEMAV

Q: Which results are given for Nc1nc(=O)n([C@H]2C[C@@H](O)[C@@H](CO)O2)cc1O [CBK201221]?
A: % stabilization in screen [1, 5]: 22%; EC50 [2, 6]: 3.43e-07 M

Q: With O=c1[nH]cc(F)c(=O)[nH]1 [Compound 5-FU, 5-fluorouracil] as the compound, how does the % stabilization in screen at 50 µM [1] read?
A: 48%

Q: And the EC50 ([2]; 50 °C for 3 min, read-out: […] apparent EC50)?
A: 1.9e-05 ± 4e-06 M

Q: What about the “intracellular levels of FdUMP” value [3] of the same compound?
A: undetectable

Q: For Cc1nc2ccc(CN(C)c3ccc(C(=O)N[C@@H](CCC(=O)O)C(=O)O)s3)cc2c(=O)[nH]1 [raltitrexed], which “apparent Tagg of TS” value ([4]; 1 μM raltitrexed) is on record?
A: above 65 °C

Q: With CCc1nc(N)nc(N)c1-c1ccc(Cl)cc1 [CBK041886, Pyrimethamine, reference compound] as the compound, how does the % stabilization in screen at 50 µM [1] read?
A: 76%

Q: What about the EC50 [2, 6] of the same compound?
A: 8.38e-06 M

Q: For CC#Cc1cn([C@H]2C[C@@H](O)[C@@H](CO)O2)c(=O)[nH]c1=O [CBK201182], which “% stabilization in screen” value [1, 5] is on record?
A: 90%

Q: And the EC50 [2, 6]?
A: 2.28e-05 M

Q: With C#Cc1cn([C@H]2C[C@H](O)[C@@H](CO)O2)c(=O)[nH]c1=O [CBK201207, 5-ethynyl-2′-deoxyuridine, reference compound] as the compound, how does the % stabilization in screen at 50 µM [1, 5] read?
A: 102%

Q: And the EC50 [2, 6]?
A: 1.41e-09 M

Q: With COCc1cn(C2CC(O)C(CO)O2)c(=O)[nH]c1=O (centres unmarked) [CBK201230] as the compound, how does the “% stabilization in screen” value [1, 5] read?
A: 23%

Q: What about the EC50 [2, 6] of the same compound?
A: 1.42e-07 M

Q: With Cc1cc(C)c(Oc2nc(=O)n([C@H]3C[C@@H](O)[C@@H](CO)O3)cc2F)c(C)c1 [CBK201184] as the compound, how does the “% stabilization in screen” value [1, 5] read?
A: 66%

Q: And the EC50 [2, 6]?
A: 9.17e-06 M

Q: Which “stabilization of recombinant TS in thermal shift assay” value (TS) does the source give for O=c1ccn([C@H]2C[C@H](O)[C@@H](CO)O2)c(=O)[nH]1 [deoxyuridine] here?
A: did not stabilize

Q: For O=c1[nH]c(=O)n([C@H]2C[C@H](O)[C@@H](CO)O2)cc1F [floxuridine, 5-fluorodeoxyuridine], which % stabilization in screen at 50 µM [1, 5] is on record?
A: 64%

Q: And the “concentration giving stabilization of TS (CETSA)” value ([2]; 10 min of pre-incubation)?
A: low nM

Q: And the EC50 [2, 6]?
A: 6.61e-11 M

Q: What about the EC50 ([2]; ITDRFCETSA EC50 (half-maximal stabilization of TS), 50 °C for 3 min, read-out: […] EC50 (half-maximal stabilization of TS)) of the same compound?
A: 6.5e-11 M and 4.7e-11 M

Q: What about the “apparent Tagg of TS” value ([4]; 15 μM floxuridine) of the same compound?
A: above 65 °C

Q: What about the “stabilization of recombinant TS in thermal shift assay” value (TS) of the same compound?
A: did not stabilize

Q: With O=c1[nH]c(=O)n([C@H]2C[C@H](O)[C@@H](CO)O2)cc1C(F)(F)F [TFT, 5-trifluoro-2′-deoxythymidine] as the compound, how does the % stabilization in screen at 50 µM [1] read?
A: 66%

Q: What about the EC50 [2, 6] of the same compound?
A: 3.18e-10 M

Q: What about the “stabilization of recombinant TS in thermal shift assay” value (TS) of the same compound?
A: did not stabilize
